IC50 and EC50 data for seven compounds are collected here from patent US20120225061A1, “TETRASUBSTITUTED CYCLOHEXYL COMPOUNDS AS KINASE INHIBITORS” (priority 2011, published 2012).

Each structure is given as a SMILES string.

One test addresses Pim2 kinase (Homo sapiens, UniProt Q9P1W9). As to the kind of experiment: Pim2 AlphaScreen assay (high ATP). In general terms: In Alpha technology, singlet oxygen from a donor bead excites a nearby acceptor bead.
Test [1] relates to KMS11 (human myeloma cell line). Briefly: Cell proliferation assay (CellTiter-Glo) in KMS11 cells. The settings on record: KMS-11, 72 h, Table 5, 3 days, read-out: KMS11-luc EC50. The test is classed as cell-based. How it is done:
KMS11 (human myeloma cell line), were cultured in IMDM supplemented with 10% FBS, sodium pyruvate and antibiotics. Cells were plated in the same medium at a density of 2000 cells per well into 96 well tissue culture plates, with outside wells vacant, on the day of assay.
Test compounds supplied in DMSO were diluted into DMSO at 500 times the desired final concentrations before dilution into culture media to 2 times final concentrations.
After 3 days plates were equilibrated to room temperature and equal volume of CellTiter-Glow Reagent (Promega) was added to the culture wells. The plates were agitated briefly and luminescent signal was measured with luminometer.
For orientation: In ATP-based viability assays light output follows the ATP content of the culture.

In another test the target is Pim3 kinase (Homo sapiens, UniProt Q86V86). Briefly: Pim3 AlphaScreen assay (high ATP).
In the next test the target is Pim1 kinase (Homo sapiens, UniProt P11309). As to the kind of experiment: Pim1 AlphaScreen assay (high ATP).
Sequence of Pim1 kinase (P11309 whole entry): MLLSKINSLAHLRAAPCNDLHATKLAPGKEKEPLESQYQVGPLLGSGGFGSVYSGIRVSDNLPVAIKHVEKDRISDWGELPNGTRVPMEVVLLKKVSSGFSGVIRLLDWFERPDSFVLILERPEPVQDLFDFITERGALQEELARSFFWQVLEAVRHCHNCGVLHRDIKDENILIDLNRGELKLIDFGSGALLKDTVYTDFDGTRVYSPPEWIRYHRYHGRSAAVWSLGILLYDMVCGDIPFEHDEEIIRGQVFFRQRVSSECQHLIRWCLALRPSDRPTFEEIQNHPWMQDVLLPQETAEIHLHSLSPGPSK

Sequence of Pim2 kinase (Q9P1W9 whole entry): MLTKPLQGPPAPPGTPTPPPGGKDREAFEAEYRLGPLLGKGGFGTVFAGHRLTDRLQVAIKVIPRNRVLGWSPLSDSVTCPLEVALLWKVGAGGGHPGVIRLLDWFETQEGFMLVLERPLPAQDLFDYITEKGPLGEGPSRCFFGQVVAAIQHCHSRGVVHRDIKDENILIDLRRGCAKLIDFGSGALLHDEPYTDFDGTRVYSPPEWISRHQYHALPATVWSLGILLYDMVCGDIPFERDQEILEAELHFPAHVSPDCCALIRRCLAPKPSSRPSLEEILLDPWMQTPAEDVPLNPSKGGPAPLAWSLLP
Protocol for Pim1 kinase: The activity of Pim 1, Pim 2, & Pim 3 is measured using a homogeneous bead based system quantifying the amount of phosphorylated peptide substrate resulting from kinase-catalyzed phosphoryl transfer to a peptide substrate. Compounds to be tested are dissolved in 100% DMSO and directly distributed to a white 384-well plate at 0.25 μl per well. […] This is followed by the addition of 5 μl/well of Pim 1, Pim 2 or Pim 3 kinase in assay buffer (concentrations described below). Final assay concentrations (described below) are in 2.5% DMSO. The reactions are performed for ˜2 hours, then stopped by the addition of 10 μl of 0.75 μg/ml anti-phospho Ser/Thr antibody (Cell Signaling), 10 μg/ml Protein A AlphaScreen beads (Perkin Elmer), and 10 μg/ml streptavidin coated AlphaScreen beads in stop/detection buffer (50 mM EDTA, 95 mM Tris, pH=7.5, 0.01% Tween-20). The stopped reactions are incubated overnight in the dark. The phosphorylated peptide is detected via an oxygen anion initiated chemiluminescence/fluorescence cascade using the Envision plate reader (Perkin Elmer).

Usually IC50 stands for the concentration needed to halve the response being measured. The term EC50 denotes the concentration needed to bring the measured effect to its halfway point. `C[C@H]1C[C@@H](c2ccncc2NC(=O)c2ccc(F)c(-c3c(F)cc(COC4CCOCC4)cc3F)n2)C[C@@H](N)[C@]1(C)O` [Example 92, N-(4-((1R,3R,4R,5S)-3-amino-4-hydroxy-4,5-dimethylcyclohexyl)pyridin-3-yl)-6-(2,6-difluoro-4-((tetrahydro-2H-pyran-4-yloxy)methyl)phenyl)-5-fluoropicolinamide]: the IC50 is 3.89 nM on Pim2 kinase, 2.2 nM on Pim3 kinase and 0.09 nM at Pim1 kinase. For the same compound, the half-maximal effective concentration (EC50) in test [1] stood at 91 nM.
Consider `C[C@@H]1C[C@H](c2ccncc2NC(=O)c2ccc(F)c(-c3c(F)cc(S(C)(=O)=O)cc3F)n2)C[C@H](O)[C@@]1(C)O` [Example 10, 6-(2,6-difluoro-4-(methylsulfonyl)phenyl)-N-(4-((1S,3S,4S,5R)-3,4-dihydroxy-4,5-dimethylcyclohexyl)pyridin-3-yl)-5-fluoropicolinamide], for which the half-maximal inhibitory concentration (IC50) against Pim2 kinase was determined as 7110 nM; at Pim3 kinase, 4150 nM; on Pim1 kinase it was 14.6 nM. Also, in test [1], the EC50 is over 10000 nM.
In the same order, the values of `C[C@H]1C[C@@H](c2ccncc2NC(=O)c2ccc(F)c(-c3c(F)cc(C4CC4)cc3F)n2)C[C@@H](N)[C@]1(C)O` [Example 67, N-(4-((1R,3R,4R,5S)-3-amino-4-hydroxy-4,5-dimethylcyclohexyl)pyridin-3-yl)-6-(4-cyclopropyl-2,6-difluorophenyl)-5-fluoropicolinamide] are 2.5 nM, 0.96 nM, 0.01 nM and 127 nM.
Regarding `CC(C)Oc1cc(F)c(-c2nc(C(=O)Nc3cnccc3[C@H]3C[C@@H](O)[C@](C)(O)[C@@H](C)C3)ccc2F)c(F)c1` [Example 106, 6-(2,6-difluoro-4-isopropoxyphenyl)-N-(4-((1R,3R,4R,5S)-3,4-dihydroxy-4,5-dimethylcyclohexyl)pyridin-3-yl)-5-fluoropicolinamide], the results for the IC50 against Pim2 kinase, against Pim3 kinase and against Pim1 kinase were 183 nM, 69.2 nM and 0.42 nM, respectively. The EC50 in test [1] worked out at 1540 nM.
Take `C[C@H]1C[C@@H](c2ccncc2NC(=O)c2ccc(F)c(-c3c(F)cc(C4(F)CCOCC4)cc3F)n2)C[C@@H](N)[C@]1(C)O` [Example 70, N-(4-((1R,3R,4R,5S)-3-amino-4-hydroxy-4,5-dimethylcyclohexyl)pyridin-3-yl)-6-(2,6-difluoro-4-(4-fluorotetrahydro-2H-pyran-4-yl)phenyl)-5-fluoropicolinamide]: the IC50 at Pim2 kinase is 2.21 nM; on Pim3 kinase, 1.73 nM; against Pim1 kinase, 0.04 nM. For the same compound, in test [1], the concentration giving a half-maximal response (EC50) came to 136 nM.
Take `C[C@H]1C[C@@H](c2ccncc2NC(=O)c2ccc(F)c(-c3c(F)cc(C(C)(C)C(=O)O)cc3F)n2)C[C@@H](N)[C@]1(C)O` [Example 103, 2-(4-(6-(4-((1R,3R,4R,5S)-3-amino-4-hydroxy-4,5-dimethylcyclohexyl)pyridin-3-ylcarbamoyl)-3-fluoropyridin-2-yl)-3,5-difluorophenyl)-2-methylpropanoic acid]: the half-inhibitory concentration (IC50) was found to be 14.1 nM against Pim2 kinase, 58.9 nM against Pim3 kinase and 1.43 nM against Pim1 kinase. Also, the EC50 in test [1] is over 10000 nM.
Consider `C[C@H]1C[C@@H](c2ccncc2NC(=O)c2nc(-c3c(F)cc(C(C)(C)O)cc3F)ccc2N)C[C@@H](O)[C@]1(C)O` [Example 114, 3-amino-6-(2,6-difluoro-4-(2-hydroxypropan-2-yl)phenyl)-N-(4-((1R,3R,4R,5S)-3,4-dihydroxy-4,5-dimethylcyclohexyl)pyridin-3-yl)picolinamide], for which the IC50 on Pim2 kinase is 21.7 nM; at Pim3 kinase, 6.93 nM; against Pim1 kinase it was 0.34 nM. The EC50 in test [1] came to 924 nM.
